Test results published in patent US10167306B2, “Crystalline form of 1-(beta-D-glucopyranosyl)-4-methyl-3-[5-(4-fluorophenyl)-2-thienylmethyl]benzene and preparation method thereof” (SHANGHAI DESANO PHARMACEUTICALS INVESTMENT CO., LTD, priority 2015, dated 2019).

Tests used:
[1] = Crystalline form competition experiment: 1:1 mixture of form W and hemihydrate form suspended in water, XRPD comparison; assay type: physicochemical
Procedure: (§1) X-ray powder diffraction instrument: Brucker D8 advance X-ray powder diffraction; radiation source: copper target (α=1.540600 Å), scanning at room temperature; voltage: 40 kv; Current: 40 mA; starting 2θ: 2.000°, scanning range: 2.0000-50.000°; step size: 0.020°; measuring time: 12.6 seconds/step.
Crystalline forms W of canagliflozin prepared in Examples 1-7 were mixed with the hemihydrate crystalline of canagliflozin (the product after crystallization) prepared in Example 1 in WO2008069327 in a ratio of 1:1, and the mixtures were suspended in water of 20° C. and 60° C. for 4 days, respectively.

[2] = Suspension of crystalline form W in water, XRPD comparison; assay type: physicochemical; settings: suspended in water of 20° C. and 60° C. for 4 days; form W prepared in Example 1; FIG. 5
Procedure: as §1
Crystalline forms W of canagliflozin prepared in Examples 1-7 were suspended in water of 20° C. and 60° C. for 4 days.

Compound	crystalline form transformation in the 1:1 mixture (XRPD pattern) ([1]; 1:1 mixture of form W (Example 1) and hemihydrate form of WO2008069327, suspended in water of 20° C. and 60° C. for 4 days, FIG. 6)	stability of crystalline form (XRPD pattern) after suspending in water [2]	relative stability in the crystalline form competition experiments ([1]; versus hemihydrate crystalline form, 1:1 mixture in water of 20° C. and 60° C. for 4 days)
Cc1ccc([C@@H]2O[C@H](CO)[C@@H](O)[C@H](O)[C@H]2O)cc1Cc1ccc(-c2ccc(F)cc2)s1 [hemihydrate crystalline form, 1-(β-D-glucopyranosyl)-4-methyl-3-[5-(4-fluorophenyl)-2-thienylmethyl]benzene, reference compound]	completely transformed into crystalline form W	–	–
Cc1ccc([C@@H]2O[C@H](CO)[C@@H](O)[C@H](O)[C@H]2O)cc1Cc1ccc(-c2ccc(F)cc2)s1 [crystalline form W, 1-(β-D-glucopyranosyl)-4-methyl-3-[5-(4-fluorophenyl)-2-thienylmethyl]benzene]	–	excellent stability	better stability
